Laboratory results taken from article PMC6152024 (Molecules : A Journal of Synthetic Chemistry and Natural …, 2017).

Legend:
CYP3A [1] = target: T1, CYP3A (Homo sapiens, UniProt P08684); experiment: IC50 shift assay (time- and NADPH-dependent inhibition) in HLMs; type: in vitro ADME
Description: (§1) A NADPH regenerating system (NADPH-gs, containing 10 mM glucose-6-phosphate, 5 mM magnesium chloride, 1 U/mL glucose-6-phosphate dehydrogenase and 1 mM NADP+) was constructed. The metabolite of Tes, 6OH-Tes, was assayed by UHPLC-MS method (I) for CYP3A activity assessment.
In a final volume of 100 µL, Gom A at different concentrations (0, 0.08, 0.31, 0.63, 2.5, 10 and 40 µM) was preincubated with 10 × HLMs (5 mg/mL) at 37 °C with NADPH-gs in PBS (0.1 M). After 30 min, the incubation mixture was diluted 10 folds using PBS (0.1 M). Then 100 µL of the diluted mixture was added into a secondary incubation containing NADPH-gs and 25 µM Tes. The final volume was 200 µL. After 10 min incubation, the reaction was terminated by the addition of 200 µL ice-cold acetonitrile containing 18 ng/mL phenacetin (IS-I). […]
(§2) Pharmacokinetic profiles of CTX and DCCTX were estimated by one-compartmental model using the DAS 2.0 software ([…], Medical College of Wannan, Anhui, China). Data were expressed as mean ± SD. […] IC50 values of Gom A were determined by nonlinear regression analysis using GraphPad Prism 5.01 software (GraphPad Software Inc., San Diego, CA, USA). The mode of inhibition was verified by Lineweaver-Burk plots of the enzyme kinetic data, and the KI value was determined by linear regression analysis with GraphPad Prism 5.01 (GraphPad Software Inc.). […]

hepatic CYP3A mRNA = experiment: CYP3A expression assay (real-time PCR) in rat liver; type: in vivo; conditions: normalized to GAPDH
Description: Rats were randomly divided into four groups (groups A−D, n = 5), respectively. In brief, rats in group A (vehicle control group) were i.g. administered with saline (10 mL/kg), and were euthanized 72 h later. Rats in groups B−D were i.g. administered with Gom A at dose of 20.8 mg/kg (50 µmol/kg, same with pharmacokinetic study), and euthanized 24, 48 and 72 h respectively after Gom A treatment. After euthanization, rat livers were immediately collected, washed with ice-cold saline, and stored at −80 °C for CYP3A protein expression assay.
To determine CYP3A mRNA content in rat liver, the liver samples were homogenized and the total RNA was extracted from liver samples using RNeasy Mini Kit according to the manufacturer’s instructions (Qiagen). The concentration of total RNA was determined by UV spectra at 260/280 nm, and the purity was determined by calculating the ration of UV absorbance. 2 µg of total RNA in a total volume of 50 µL (1 µg/25 µL) was reverse transcribed into template cDNA using dNTP mix (1 mM), random primers (0.5 µg/mL), AMV RT (22 U/µL), MgCl2 (25 mM) and RT buffer (10×).
For qRT-PCR, forward and reverse primer sequences (Table 2) of CYP3A gene were used. In a Stratagene Mx3005P sequence detection system (Agilent Technologies Agilent, Santa Clara, CA, USA), 50 ng of cDNA/sample and 10 µM forward and reverse primers were added to a total reaction mixture of 20 µL of SYBR Select Master Mix (Invitrogen). GAPDH was applied as the house-keeping gene. All assays were performed in triplicate. […] The CYP3A mRNA levels of groups A−D were expressed as a ratio of induced to vehicle control group (group A).

CYP3A [2] = target: T1, CYP3A; experiment: Reversible CYP3A inhibition, testosterone 6β-hydroxylation in human liver microsomes; type: in vitro ADME; conditions: HLMs, Lineweaver-Burk plot
Description: as §1
The CYP3A inhibition by Gom A was preliminarily evaluated. […] After a 5 min warm up period, reactions were initiated with addition of NADPH-gs. Incubations were conducted at 37 °C for 10 min and then terminated by the addition of 200 µL ice-cold acetonitrile containing 18 ng/mL phenacetin (IS-I). […] Incubations were processed and terminated as described earlier.
as §2, with “SD. Comparisons between two groups were performed using one-way ANOVA followed by LSD test in the condition of variance homogeneity or Dunnett T3 test in the case of variance heterogeneity.” for “SD.”

T1 sequence (P08684 2-503): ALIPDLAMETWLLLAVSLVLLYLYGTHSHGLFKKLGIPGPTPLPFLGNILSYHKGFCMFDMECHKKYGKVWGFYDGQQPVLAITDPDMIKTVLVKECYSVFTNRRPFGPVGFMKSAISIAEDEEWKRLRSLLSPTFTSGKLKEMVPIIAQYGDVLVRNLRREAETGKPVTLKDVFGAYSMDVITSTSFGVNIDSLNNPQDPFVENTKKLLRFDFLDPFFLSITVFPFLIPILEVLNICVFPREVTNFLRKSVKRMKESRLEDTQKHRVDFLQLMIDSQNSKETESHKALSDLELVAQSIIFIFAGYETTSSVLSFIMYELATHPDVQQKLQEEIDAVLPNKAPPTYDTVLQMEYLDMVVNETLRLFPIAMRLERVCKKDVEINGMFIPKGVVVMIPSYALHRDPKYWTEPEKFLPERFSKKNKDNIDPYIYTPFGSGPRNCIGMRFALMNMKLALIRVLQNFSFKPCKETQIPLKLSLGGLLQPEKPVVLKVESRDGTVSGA

## Gomisin A [Gom A]
CYP3A [1]; Gom A 1 µM preincubated 30 min with vs without NADPH-gs, data not shown
  NADPH dependence of CYP3A inhibition: more potent when Gom A was preincubated with NADPH
CYP3A [1]; with vs without 30 min preincubation
  shift in IC50: 1.8 fold
Hepatic CYP3A mRNA; 24 h after single dose Gom A 20.8 mg/kg i.g.
  hepatic CYP3A mRNA expression increase vs vehicle group: 73 fold
Hepatic CYP3A mRNA; 48 h after single dose Gom A 20.8 mg/kg i.g.
  hepatic CYP3A mRNA expression increase vs vehicle group: 18 fold
Hepatic CYP3A mRNA; 72 h after single dose Gom A 20.8 mg/kg i.g.
  hepatic CYP3A mRNA expression increase vs vehicle group: 8 fold
CYP3A [2]
  mode of inhibition: competitive inhibitor
